Laboratory results reported in patent US4379159A, “Antiinflammatory 2-substituted-thio-4,5-dihydro-4,5-diaryl-1H-imidazoles” (E. I. Du Pont de Nemours & Company, priority 1980, dated 1983).

Legend:
[1] = test system: arthritis; conditions: background statement; cited from earlier work
[2] = test system: adjuvant arthritis; conditions: background statement; cited from earlier work
[3] = test system: adjuvant-induced arthritis in rats; experiment: Established Adjuvant-Induced Arthritis in Rats; format: in vivo, rat (Lewis (Wistar) male rats); conditions: oral gavage once daily 7 days (days 14-20), paw volume on day 21; for ED50: Rattus norvegicus, ED50% for decrease from control paw volume, estimated by inspection of dose-response regression lines

c1ccc([C@H]2CN3CCSC3=N2)cc1 [Levamisole, 2,3,5,6-Tetrahydro-6-phenylimidazole-[2,1-b]thiazole]
clinical efficacy as an antiarthritic [1]: has shown clinical efficacy
activity in an adjuvant arthritis test [2]: inactive

Cl.FC(F)(F)CSC1=NC(c2ccc(Cl)cc2)C(c2ccc(Cl)cc2)N1 (centres unmarked) [Example 3, 4,5-Bis(4-chlorophenyl)-4,5-dihydro-2-(2,2,2-trifluoroethylthio)-1H-imidazole Hydrochloride]
ED50 [3]: 25 mg/kg

C=CCSC1=NC(c2ccc(Cl)cc2)C(c2ccc(Cl)cc2)N1.Cl (centres unmarked) [Example 2, 4,5-Bis(4-chlorophenyl)-4,5-dihydro-2-(allylthio)-1H-imidazole Hydrochloride]
percent reduction in paw volume at the indicated dose ([3]; at 25 mg/kg): 28%

CSC1=NC(c2ccc(Cl)cc2)C(c2ccc(Cl)cc2)N1.Cl (centres unmarked) [Example 1, 4,5-Bis(4-chlorophenyl)-4,5-dihydro-2-(methylthio)-1H-imidazole Hydrochloride]
ED50 [3]: 60 mg/kg
